Measured values from PMC4546427, “Stereoselective Regulation of P-gp Activity by Clausenamide Enantiomers in Caco-2, KB/KBv and Brain Microvessel Endothelial Cells” (PLoS ONE, 2015).
“And” between values parts separate entries of the source, which are not always exact repeats. Identical values can stand only once.

System: P-gp
Test: Rh123 accumulation in RBMECs
Assay type: cell-based, rat
Details: RBMEC; for Increase in Rh123 accumulation relative to verapamil alone: co-treatment CLA 5 μmol/L with verapamil 200 μmol/L; for Percentage of rhodamine 123 accumulation relative to vehicle treatment: positive = increase
Protocol: The experimental programs in this part were approved by the Animal Care and Welfare Committee in our institute. Animals were treated in accordance with national/international guidelines. Primary cultures of brain microvessel endothelial cells were prepared from Sprague—Dawley rats (10–12 days old; Beijing Vital River Company, Beijing, China), as previously described by Qian et al.[21]. The gray matter of animals was taken out and minced into small pieces of approximately 1 mm^3 in ice-cold MEM medium, then dissociated by using 2 mg/mL collagenase containing DNase at a final concentration of 10.5 μg/ml on a shaker for 20 min at 37°C. The cells were pelleted by centrifugation(1000 rpm, 10 min, 4°C) and digested once again according to the above protocol. Then 20% dextran(Mr 40,000) was added to the cells for differential centrifugation at 2000 rpm for 10 min. The cells were re-suspended in complete MEM medium and passed through 74-μm stainless steel mesh. Obtained RBMECs were seeded on 1% (w/v) gelatin-coated culture flasks and cultivated in complete medium (MEM, 20% FBS, 0.9 mg/mL glutamate, 10 mmol/L hepes, 100 ng/mL bFGF, 100 μg/mL heparin sulphate, 100 units/mL penicillin, 100 μg/mL streptomycin sulphate and 50 units/mL amphotericin B) at 37°C and 5% CO2, which was refreshed with complete medium 4 h after seeding to eliminate non-endothelial cells. A final concentration of 2 μg/mL of puromycin was added for 7 h to further purify the cultured cells. The purity of RBMECs was examined by their morphological characteristics using a phase-contrast microscope, and immunocytochemistry of a specific marker, factor VIII-associated antigen, with a rabbit anti-factor VIII polyclonal antibody and FITC-conjugated goat anti-rabbit factor VIII secondary antibody by immunofluorescence microscopy (Olympus IX 70-S1Z2, Olympus Optical CO. Ltd., Japan). The P-gp expression in cultured cells was determined by Western blot analyses using a mouse monoclonal antibody raised against amino acids 1040–1280 of P-gp. When the cultures in the flasks reached 80%–90% confluence, the purified RBMECs were passaged by a brief treatment with trypsin (0.25%, w/v) and EDTA (0.02%, w/v) solution and seeded onto 6-well plates at a density of 5 × 10^5 cells/well; after 2–3 days, incubated with the following agents for 2 h under culture conditions (37°C, 5% CO2 and humidified air): vehicle; (−)CLA (1 or 5 μmol/L); (+)CLA (1 or 5 μmol/L); verapamil (200 μmol/L); or individual enantiomer (1 or 5 μmol/L) plus verapamil (200 μmol/L). In the end, Rh123 (5 μmol/L) was added to the whole wells. The cell incubation, solubilisation and Rh123 accumulation were performed according to the same method for Caco-2 cells described above.
Primary cultures of brain microvessel endothelial cells were prepared from Sprague–Dawley rats (10–12 days old; Beijing Vital River Company, Beijing, China), as previously described by Qian et al.[21]. Animals were anesthetized by intraperitoneal injection of 20% ethyl carbamate at dose of 1g/kg[35], and sterilized by immersion in 75% alcohol solution for 2 min. The gray matter of these animals was taken out and minced into small pieces of approximately 1 mm^3 in ice-cold MEM medium, then dissociated by using 2 mg/mL collagenase containing DNase at a final concentration of 10.5 μg/ml on a shaker for 20 min at 37°C. The cells were pelleted by centrifugation(1000 rpm, 10 min, 4°C) and digested once again according to the above protocol. Then 20% dextran(Mr 40,000) was added to the cells for differential centrifugation at 2000 rpm for 10 min. The cells were re-suspended in complete MEM medium and passed through 74-μm stainless steel mesh. […]

[1] = high dose, CLA 5 μmol/L, Rh123 5 μmol/L, 2 h
[2] = low dose, CLA 1 μmol/L, Rh123 5 μmol/L, 2 h

Row | Structure (SMILES) | Decrease of Rh123 accumulation relative to vehicle control (CLA 1 μmol/L, Rh123 5 μmol/L, 2 h) [%] | Increase in Rh123 accumulation relative to verapamil alone [%] | Decrease in Rh123 accumulation relative to verapamil alone (co-treatment of verapamil 200 μmol/L with CLA 1 μmol/L) [%] | Percentage of rhodamine 123 accumulation relative to vehicle treatment [1] | Percentage of rhodamine 123 accumulation relative to vehicle treatment [2] | Rh123 accumulation relative to verapamil alone (in words) (verapamil 200 μmol/L plus CLA 1 μmol/L)
1 | CN1C(=O)[C@H](O)[C@@H](c2ccccc2)[C@H]1[C@H](O)c1ccccc1 [(+)CLA, 3R,4S,5S,6R-CLA] | 20.0 | 18.5 | 26.5 | 41.1% and 41.13% | -20.04% | 
2 | CN1C(=O)[C@@H](O)[C@H](c2ccccc2)[C@@H]1[C@@H](O)c1ccccc1 [(−)CLA, 3S, 4R, 5R, 6S-clausenamide] |  | 24.5 |  | 58.46% | 20.0% and 20.04% | slightly increased trend
